No end group written: not given here.
Assays:
E. coli (ATCC 25922) = assay type: cell-based, Escherichia coli
Protocol: (§1) The antibacterial activities of the different peptides were determined by continuous monitoring of bacterial growth with a Bioscreen C microbiology reader (Labsystems Oy, Helsinki, Finland). The test was performed in 100-well flat-bottomed honeycomb plates, in which 50 μl of test fractions were incubated with 50 μl of a suspension of an actively growing culture of bacteria diluted in Mueller Hinton medium to a starting concentration of 3×10^4 cells per ml. […] [NT] 13032) and S. aureus (ATCC 9144), were chosen as test bacteria. […] Polymyxin B (Sigma, St.

[1] = system: Listonella (Vibrio) anguillarum, serotype O2 (FT 1801); assay type: cell-based
Protocol: as §1

Pseudomonas aeruginosa = assay type: cell-based
Protocol: as §1

[2] = system: C. glutamicum (ATCC 13032); assay type: cell-based, Corynebacterium glutamicum
Protocol: as §1

S. aureus (ATCC 9144) = assay type: cell-based, Staphylococcus aureus; settings: ATCC 9144
Protocol: as §1

Botrytis cinerea 101 = settings: 48 h
Protocol: (§2) The various derivates of P17 (brominated and non-brominated) were tested for their ability to inhibit fungal growth of the yeast strains Saccaharomyces cerevisiae sp, Candida albicans (ATCC 10231) and Rodotorula sp., and the filamentous strains Botrytis cinerea 101, Penicillium rogveforti, and Fusarium sp. All strains, except C. albicans, were a gift from Prof. A. Tronsmo (The Norwegian University of Life Sciences, Ås, Norway). The fungi were cultivated on potato dextrose agar, supplemented with 2% glucose, at room temperature. Before antifungal testing, the fungi were dissolved in potato dextrose broth (Difco) at half-strength. Cell concentration was determined and adjusted after counting in a Bürker chamber. The filamentous fungi were filtered through a piece of cotton before counting. An aliquot of 50 μl of fungal spores (final concentration 2×10^5 spores per ml) were inoculated in microtiter plates (96 wells) along with 50 μl peptide solution. Peptides, dissolved in distilled water, were tested at final concentrations (two-fold dilutions) ranging from 50 μM to 0.1 μM. Cultures were grown in the dark (without shaking) and with a moist chamber at 25° C. (37° C. for C. albicans). Growth inhibition was determined microscopically after 48 h of incubation. MIC was determined as the lowest concentration of peptide resulting in 50% inhibition of visible growth.

[3] = system: Candida albicans (ATCC 10231); settings: ATCC 10231, 48 h
Protocol: as §2

Saccharomyces cerevisiae = settings: 48 h
Protocol: as §2

Penicillum rogveforti = experiment: Antifungal MIC; assay type: cell-based; settings: filamentous fungi; more than 50% inhibition of visible growth, 48 h
Protocol: as §2

L. anguillarum = assay type: cell-based, Listonella (Vibrio) anguillarum
Protocol: (§3) The Gram-negative bacteria Listonella (Vibrio) anguillarum, serotype O2 (FT 1801, also coded as AL 104/LFI 6004), originally isolated from Atlantic salmon by staff of the Norwegian Veterinary Institute (Oslo, Norway), Escherichia con (ATCC 25922), and the Gram-positive bacteria Staphylococcus aureus (ATCC 9144) and Corynebacterium glutamicum (ATCC 13032) were used as test organisms. All isolates were grown at room temperature in Mueller Hinton Broth (MBB; Difco Laboratories, Detroit, U.S.A).
(§4) The antibacterial activities of the obtained HPLC fractions were determined by continuous monitoring of bacterial growth with a Bioscreen C microbiology reader (Labsystems Oy, Helsinki, Finland). The test was performed in 100-well flat-bottomed honeycomb plates, in which […] of test fractions were incubated with 50 μl of a suspension of an actively growing culture of bacteria diluted to a starting concentration of 5×10^3 cells per well. The growth chamber was maintained at 20° C. during the incubation period. The absorbance was measured at 2 h intervals for 48 h by a turbidometric method with vertical light photometry and a wide band filter (420-580 nm), which is more insensitive to colour change in the sample compared to single wavelength detection. Cecropin P1(0.5 μg/ml) was used as a positive control during these experiments. Antibacterial activity was determined when the optical density (OD) of the growth control (bacteria plus water) reached an absorbance of approximately 0.3. Fractions were regarded as active when the OD was less than 50% of the growth control.
(§5) The polypeptides of the present invention were isolated and subsequently tested for activity. A serial dilution method was employed to examine the antibacterial activity of the peptides. Two Gram-negative bacteria, L. anguillarum and E. coli, and two Gram-positive bacteria, C. glutamicum and S. aureus, were chosen as test bacteria. The polypeptides of the present invention were active against both Gram-positive and Gram-negative bacteria (table 4).

E. coli = assay type: cell-based, Escherichia coli
Protocol: as §3, §4, §5

C. glutamicum = assay type: cell-based, Corynebacterium glutamicum
Protocol: as §3, §4, §5

S. aureus = assay type: cell-based, Staphylococcus aureus
Protocol: as §3, §4, §5

E. coli K-12 = experiment: Bacterial cell viability, lux luminescence and OD600, with or without LPS; assay type: cell-based, Escherichia coli; settings: co-incubation with 2.5 μM Aeromonas salmonicida LPS
Excerpt: (§6) To evaluate the effect of antimicrobial peptides on the viability of bacteria in a fast and reliable manner we used the lux CDABE operon from Photorhabdus luminescens as a reporter system in gram negative test bacteria and the modified luxABCDE operon in S. aureus (Vesterlund et al. 2004). Bacterial bioluminescence is directly dependent on metabolic activity, since reduction equivalents are needed to drive light emission. Any form of interruption of bacterial cell integrity or metabolism will therefore be detected as a reduction in light emission.
(§7) For the assay we used S. aureus (RN4220), E. coli K-12 and Salmonella enterica serovar typhimurium (ATCC 14028) transformed with the respective lux-operon containing plasmids (Vesterlund et al. 2004).
(§8) For each experiment a fresh colony was picked from Luria-Bertani plates supplemented with 10 μg/ml of erythromycin in case of S. aureus and with 100 μg/ml of ampicillin in case of E. coli and S. enterica serovar Typhimurium. Each colony was suspended in 5 ml of Müller-Hinton medium with appropriate antibiotics. The culture was incubated over night at 37° C. in a shaking incubator. The next morning 0.5 ml of this culture was transferred to 30 ml fresh MH medium in an Erlenmeyer-flask supplemented with the respective antibiotic. The flask was incubated (200 rpm shaking; 37° C.) until an OD600 of 0.5-0.8 was reached. The culture was then diluted to an OD600 of about 0.02-0.03 before transfer to the 96 well opaque plates with optical bottom (Packard ViewPlate) used for the assay.
The synthesized peptides were dissolved in water and aliquots frozen at −18° C. until use. Twofold dilutions of test peptides (final concentrations ranging from 0.31 to 80 μM) were directly prepared in 96 well microtiter plates in a volume of 10 μl in water. 90 μl is of indicator bacteria in MH medium were added directly to the prepared and pre-warmed (30 minutes at 37° C.) plate before starting the measurement in a Victor multiplate reader (Perkin Elmer) at 37° C. Both OD600 and luminescence in counts per second (cps) were followed over 5 hours in measuring intervals of 5 minutes. The plates where shaken before each measurement (20 sec.; 5 mm orbital shaking; 10 sec waiting). The growth curves and light emission curves were drawn and evaluated to determine the MIC for each indicator strain. The MIC was defined as the concentration of test compound causing more than 50% reduction in bioluminescence (cps) or optical density (OD600) after 5 hours, compared to the growth control. Cecropin P1 was used as positive control. […]
A second plate with an otherwise similar setup (as described for the luminescence assay in example 3) was prepared, but with addition of Aeromonas salmonicida LPS to the peptide dilutions before pre-warming. […]

[4] = system: Salmonella enterica serovar typhimurium (ATCC 14028); experiment: as above; assay type: cell-based; settings: co-incubation with 2.5 μM Aeromonas salmonicida LPS
Excerpt: as §6, §7, §8
The synthesized peptides were dissolved in water and aliquots frozen at −18° C. until use. Twofold dilutions of test peptides (final concentrations ranging from 0.31 to 80 μM) were directly prepared in 96 well microtiter plates in a volume of 10 μl in water. 90 μl is of indicator bacteria in MH medium were added directly to the prepared and pre-warmed (30 minutes at 37° C.) plate before starting the measurement in a Victor multiplate reader (Perkin Elmer) at 37° C. Both OD600 and luminescence in counts per second (cps) were followed over 5 hours in measuring intervals of 5 minutes. The plates where shaken before each measurement (20 sec.; 5 mm orbital shaking; 10 sec waiting). The growth curves and light emission curves were drawn and evaluated to determine the MIC for each indicator strain. The MIC was defined as the concentration of test compound causing more than 50% reduction in bioluminescence (cps) or optical density (OD600) after 5 hours, compared to the growth control. Cecropin P1 was used as positive control. The results (table 14a-b) confirm the results obtained in example 2, showing a pronounced antibacterial effect of the longest peptide fragments. […] The partial peptides P17 HC (1-20), both bromated and unbromated, inhibit growth only in higher concentrations.
A second plate with an otherwise similar setup (as described for the luminescence assay in example 3) was prepared, but with addition of Aeromonas salmonicida LPS to the peptide dilutions before pre-warming. The LPS end concentration in each well was approximately 2.5 μM.

Row | Sequence | Minimal inhibitory concentration, E. coli (E. coli (ATCC 25922)) [µM] | Minimal inhibitory concentration, L. anguillarum [1] [µM] | Minimal inhibitory concentration, P. aeruginosa (Pseudomonas aeruginosa) [µM] | Minimal inhibitory concentration, C. glutamicum [2] [µM] | Minimal inhibitory concentration, S. aureus (S. aureus (ATCC 9144)) [µM] | Minimal inhibitory concentration (MIC), Botrytis cinerea (Botrytis cinerea 101) [µM] | Minimal inhibitory concentration (MIC), Candida albicans [3] [µM] | Minimal inhibitory concentration (MIC), Saccharomyces cerevisiae (Saccharomyces cerevisiae) [µM] | Minimal inhibitory concentration (MIC), Penicillum rogveforti (Penicillum rogveforti) [µM] | Minimal inhibitory concentration (MIC), L. anguillarum (L. anguillarum) [µM] | Minimal inhibitory concentration (MIC), E. coli (E. coli) [µM] | Minimal inhibitory concentration (MIC), C. glutamicum (C. glutamicum) [µM] | Minimal inhibitory concentration (MIC), S. aureus (S. aureus) [µM] | MIC, more than 50% reduction in optical density, E. coli, P + LPS (E. coli K-12; OD600, 5 hours) [µM] | MIC, more than 50% reduction in luminescence, E. coli, P + LPS (E. coli K-12; luminescence (cps), 5 hours) [µM] | MIC, more than 50% reduction in optical density, S. enterica, P + LPS ([4]; OD600, 5 hours) [µM] | MIC, more than 50% reduction in luminescence, S. enterica, P + LPS ([4]; luminescence (cps), 5 hours) [µM]
1 | DLRGACAAAHAL [P17 LC] | >100 | >100 | >100 | >100 | >100 | >100 | >100 | >100 | >100 |  |  |  |  |  |  |  | 
2 | SWLSKTAKKLENSAKKRISEGIAIAIQGGPR [Cecropin P1, reference compound] |  |  |  |  |  |  |  |  |  | 1.2 | 1.2 | 1.6 | 12.5 | 20 | 20 | 10 | 10
